Source: patent US11033641B2, “Radiolabelled mGluR2/3 pet ligands” (Janssen Pharmaceutica NV, priority 2015, dated 2021)

Legend:
[1] = Ex-vivo biodistribution in SD rats; parameters: species or system Sprague Dawley rats
Procedure: (§1) Sprague-Dawley rats obtained from Harlan (the Netherlands), were housed in groups of four to six per cage until treatment. They were kept at a constant temperature of 21° C. and at a 12-h light/dark cycle, in which lights were switched on at 8:00 a.m. Animals had unrestricted access to food (Teklad Global 16% Protein Rodent Diet, Harlan, Madison, Wis., USA) and water. All animal experiments were performed in compliance with Belgium laws on animal experimentation and after approval by the local animal ethics committee.
(§2) The biodistribution of [^18F]-1 was determined at 2, 10, 30 and 60 min, after injection in Sprague Dawley (SD) rats (n=3 per time point) while for [^18F]-2 the 30 min time point was not performed. Rats were injected intravenously with 0.7-1.1 MBq via a tail vein and euthanized at the time points indicated above, under isoflurane anesthesia. All tissues were dissected, weighed and counted for radioactivity in a gamma counter.
as §2, with “Dawley” for “Dawley (SD)”, “point).” for “point) while for [^18F]-2 the 30 min time point was not performed.”

[2] = target: T1, human mGlu3 (Homo sapiens, UniProt Q14832); test: [3H]-compound A displacement binding, human mGlu3 HEK293 membranes; conditions: Glu3 HEK293, 25 nM [3H]-compound A
T1 construct: expressed in transfected cells; host or cells: HEK293
Procedure: (§3) For [^3H]-compound A (a NAM compound, selective for mGlu2/3 (˜20 fold selective for 2 over 3) vs other mGluRs) binding, membranes from human mGlu2 and mGlu3 HEK293 cells, and also rat cortical membranes, were used. After thawing, membranes were homogenized using an Ultra Turrax homogenizer and suspended in ice-cold binding buffer containing 50 mM Tris-HCl (pH 7.4), 10 mM MgCl2, 2 mM CaCl2. Displacement studies were done using 6 nM of radioligand, except for human mGlu3 membranes where 25 nM was used. Assay mixtures were incubated for 60 min at RT in a volume of 0.5 ml containing […] or 75 μg membrane protein of human mGlu2, human mGlu3 or rat cortex, respectively. Non-specific binding was estimated in the presence of […] compound B (a NAM with IC50˜10 nM against hmGlu2 and IC50˜200 nM against hmGlu3). Filtration was performed using Whatman GF/C filter sheets pre-soaked in 0.1% PEI and a Brandell harvester 96.
(§4) Filters from filters sheets were punched into vials. After the addition of scintillation liquid, radioactivity on the filters was counted in a Liquid Scintillation Analyzer from Perkin Elmer.
(§5) Radioligand competition binding data were calculated as percentage of total binding measured in the absence of test compound. Inhibition curves, plotting percentage of total binding versus the log concentration of the test compound, were generated using the Lexis software. Sigmoid inhibition curves were analyzed using non-linear regression analysis.

[3] = system: mGluR2/3; test: microPET scan, baseline and after compound A pretreatment; assay type: in vivo; conditions: SD rats
Procedure: Data were acquired in a 128×128×95 matrix with a pixel width of 0.475 mm and a slice thickness of 0.796 mm. During PET imaging, rats were kept under gas anesthesia (2.5% isoflurane in oxygen at a flow rate of 1 l/min), and their body temperature was maintained between 36.5 and 37° C. using a heating pad. PET data were analyzed using Pmod software version 3.2 (Pmod, Zurich Switzerland).
as §1
All pretreatment solutions were 1 mg/mL solutions in 20% β-cyclodextrine in saline with a pH ranging between 6 and 8, and sterile filtered over a Millex GV filter prior to use.
For the baseline scan, 36-43 MBq of [^18F]-1 was injected in 3 SD rats weighing 229-251 g in the tail vein, and scanned simultaneously during a 90 min dynamic PET scan. For the pretreatment scan using compound A (a NAM compound, selective for mGlu2/3 (˜20 fold selective for 2 over 3) vs other mGluRs), the same animals were injected with 10 mg/kg compound A s.c. 60 minutes prior to injection of 38-37 MBq [^18F]-1 in the tail vein, and scanned simultaneously during a 90 minutes dynamic PET scan.
For the baseline scan, 39-49 MBq of [^18F]-2 was injected in 3 SD rats weighing 301-310 g in a tail vein, and scanned simultaneously during a 90-min dynamic PET scan. For the pretreatment scan using compound A, the same animals were injected with 10 mg/kg compound A s.c. 60 min prior to injection of 46-50 MBq [^18F]-2 in the tail vein, and scanned simultaneously during a 90 min dynamic PET scan.

[4] = target: T2, human mGlu2 (Homo sapiens, UniProt Q14416); test: [3H]-compound A displacement binding, human mGlu2 HEK293 membranes; conditions: Glu2 HEK293, 6 nM [3H]-compound A
T2 construct: expressed in transfected cells; host or cells: HEK293
Procedure: as §3, §4, §5

T1 sequence (Q14832 23-879): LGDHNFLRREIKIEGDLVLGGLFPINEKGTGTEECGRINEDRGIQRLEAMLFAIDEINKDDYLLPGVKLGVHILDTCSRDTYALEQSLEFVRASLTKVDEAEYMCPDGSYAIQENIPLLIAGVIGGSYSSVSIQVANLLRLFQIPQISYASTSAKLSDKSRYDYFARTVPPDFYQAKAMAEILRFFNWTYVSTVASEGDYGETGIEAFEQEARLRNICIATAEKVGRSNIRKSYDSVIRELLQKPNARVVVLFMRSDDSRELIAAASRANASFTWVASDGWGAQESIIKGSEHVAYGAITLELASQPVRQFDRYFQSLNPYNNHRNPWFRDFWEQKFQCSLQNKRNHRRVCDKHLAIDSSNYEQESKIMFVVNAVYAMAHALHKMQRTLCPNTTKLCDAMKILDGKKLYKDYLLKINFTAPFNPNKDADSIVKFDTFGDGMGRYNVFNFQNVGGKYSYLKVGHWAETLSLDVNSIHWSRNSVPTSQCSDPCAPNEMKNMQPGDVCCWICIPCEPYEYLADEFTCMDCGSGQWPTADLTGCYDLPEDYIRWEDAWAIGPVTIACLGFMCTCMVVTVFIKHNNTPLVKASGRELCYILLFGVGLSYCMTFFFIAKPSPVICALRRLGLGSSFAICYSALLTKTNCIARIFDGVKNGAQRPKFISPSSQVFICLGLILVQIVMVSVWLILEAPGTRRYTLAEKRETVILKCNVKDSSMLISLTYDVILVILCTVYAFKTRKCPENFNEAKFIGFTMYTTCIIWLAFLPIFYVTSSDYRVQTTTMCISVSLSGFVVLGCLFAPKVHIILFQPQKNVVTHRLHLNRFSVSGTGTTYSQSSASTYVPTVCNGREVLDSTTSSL
T2 sequence (Q14416 19-872): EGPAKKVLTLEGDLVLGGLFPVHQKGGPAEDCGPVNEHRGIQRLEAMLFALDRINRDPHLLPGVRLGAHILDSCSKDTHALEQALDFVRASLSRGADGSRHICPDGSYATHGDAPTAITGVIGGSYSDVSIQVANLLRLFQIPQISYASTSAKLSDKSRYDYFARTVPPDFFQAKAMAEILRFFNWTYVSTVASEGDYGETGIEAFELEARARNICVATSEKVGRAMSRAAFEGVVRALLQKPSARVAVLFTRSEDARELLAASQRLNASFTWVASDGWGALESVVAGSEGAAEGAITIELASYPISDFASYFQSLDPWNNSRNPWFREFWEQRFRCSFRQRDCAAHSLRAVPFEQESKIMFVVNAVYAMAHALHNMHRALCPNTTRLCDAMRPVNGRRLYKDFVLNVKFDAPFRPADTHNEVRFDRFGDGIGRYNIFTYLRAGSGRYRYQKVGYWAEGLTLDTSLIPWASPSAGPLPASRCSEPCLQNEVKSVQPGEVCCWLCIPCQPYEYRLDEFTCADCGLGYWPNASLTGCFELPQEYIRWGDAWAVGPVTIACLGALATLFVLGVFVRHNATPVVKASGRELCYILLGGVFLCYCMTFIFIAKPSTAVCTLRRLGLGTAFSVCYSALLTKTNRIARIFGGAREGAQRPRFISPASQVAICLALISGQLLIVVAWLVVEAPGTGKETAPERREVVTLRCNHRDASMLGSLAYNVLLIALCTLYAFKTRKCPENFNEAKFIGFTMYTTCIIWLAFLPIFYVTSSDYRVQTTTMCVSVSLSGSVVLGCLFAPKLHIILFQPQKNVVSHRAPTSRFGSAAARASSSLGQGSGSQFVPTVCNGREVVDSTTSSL

With `C[C@H]1CN(c2ccc(C(F)(F)F)c(C[18F])c2)C(=O)c2c(C#Cc3ccc(N)nc3)cnn21` [Compound 2] the “Biodistribution, mean SUV” value ([1]; blood, 2 min after i.v. injection) was 0.96 SUV, the “Biodistribution, mean SUV” value ([1]; blood, 10 min after i.v. injection) was 0.92 SUV and the “Biodistribution, mean SUV” value ([1]; blood, 60 min after i.v. injection) was 0.67 SUV. The “Biodistribution, mean SUV” value ([1]; bone, 2 min after i.v. injection) was 0.53 SUV, the “Biodistribution, mean SUV” value ([1]; bone, 10 min after i.v. injection) was 0.62 SUV and the “Biodistribution, mean SUV” value ([1]; bone, 60 min after i.v. injection) was 2.77 SUV. For the same compound, the “Biodistribution, mean SUV” value ([1]; cerebellum, 2 min after i.v. injection) was 1.53 SUV, the “Biodistribution, mean SUV” value ([1]; cerebellum, 10 min after i.v. injection) was 1.23 SUV and the “Biodistribution, mean SUV” value ([1]; cerebellum, 60 min after i.v. injection) was 0.73 SUV. The “Biodistribution, mean SUV” value ([1]; cerebrum + cerebellum, 2 min after i.v. injection) was 1.44 SUV, the “Biodistribution, mean SUV” value ([1]; cerebrum + cerebellum, 10 min after i.v. injection) was 1.34 SUV and the “Biodistribution, mean SUV” value ([1]; cerebrum + cerebellum, 60 min after i.v. injection) was 0.89 SUV. The “Biodistribution, mean SUV” value ([1]; cortex, 2 min after i.v. injection) was 2.50 SUV, the “Biodistribution, mean SUV” value ([1]; cortex, 10 min after i.v. injection) was 2.51 SUV and the “Biodistribution, mean SUV” value ([1]; cortex, 60 min after i.v. injection) was 1.56 SUV. The “Brain uptake, in words” value ([1]; ex-vivo biodistribution) was “medium brain uptake”, the “Defluorination judged from bone uptake over time” value ([1]; ex-vivo biodistribution) was “massive defluorination” and the “Peripheral uptake, in words” value ([1]; ex-vivo biodistribution) was “high uptake in the liver”. The “Biodistribution, mean SUV” value ([1]; heart, 2 min after i.v. injection) was 2.42 SUV, the “Biodistribution, mean SUV” value ([1]; heart, 10 min after i.v. injection) was 1.67 SUV and the “Biodistribution, mean SUV” value ([1]; heart, 60 min after i.v. injection) was 0.82 SUV. For the same compound, the “Biodistribution, mean SUV” value ([1]; hippocampus, 2 min after i.v. injection) was 1.03 SUV, the “Biodistribution, mean SUV” value ([1]; hippocampus, 10 min after i.v. injection) was 1.17 SUV and the “Biodistribution, mean SUV” value ([1]; hippocampus, 60 min after i.v. injection) was 0.74 SUV. For the same compound, the “Biodistribution, mean SUV” value ([1]; kidneys, 2 min after i.v. injection) was 4.05 SUV, the “Biodistribution, mean SUV” value ([1]; kidneys, 10 min after i.v. injection) was 2.73 SUV and the “Biodistribution, mean SUV” value ([1]; kidneys, 60 min after i.v. injection) was 1.81 SUV. For the same compound, the “Biodistribution, mean SUV” value ([1]; liver, 2 min after i.v. injection) was 8.44 SUV, the “Biodistribution, mean SUV” value ([1]; liver, 10 min after i.v. injection) was 6.22 SUV and the “Biodistribution, mean SUV” value ([1]; liver, 60 min after i.v. injection) was 2.83 SUV. The “Biodistribution, mean SUV” value ([1]; lungs, 2 min after i.v. injection) was 2.66 SUV, the “Biodistribution, mean SUV” value ([1]; lungs, 10 min after i.v. injection) was 1.52 SUV and the “Biodistribution, mean SUV” value ([1]; lungs, 60 min after i.v. injection) was 1.02 SUV. The “Biodistribution, mean SUV” value ([1]; muscle, 2 min after i.v. injection) was 0.88 SUV, the “Biodistribution, mean SUV” value ([1]; muscle, 10 min after i.v. injection) was 0.82 SUV and the “Biodistribution, mean SUV” value ([1]; muscle, 60 min after i.v. injection) was 0.59 SUV. For the same compound, the “Biodistribution, mean SUV” value ([1]; pancreas, 2 min after i.v. injection) was 3.29 SUV, the “Biodistribution, mean SUV” value ([1]; pancreas, 10 min after i.v. injection) was 2.06 SUV and the “Biodistribution, mean SUV” value ([1]; pancreas, 60 min after i.v. injection) was 1.27 SUV. For the same compound, the “Biodistribution, mean SUV” value ([1]; pons, 2 min after i.v. injection) was 1.04 SUV, the “Biodistribution, mean SUV” value ([1]; pons, 10 min after i.v. injection) was 0.74 SUV and the “Biodistribution, mean SUV” value ([1]; pons, 60 min after i.v. injection) was 0.40 SUV. The “Biodistribution, mean SUV” value ([1]; rest of cerebrum, 2 min after i.v. injection) was 1.45 SUV, the “Biodistribution, mean SUV” value ([1]; rest of cerebrum, 10 min after i.v. injection) was 1.39 SUV and the “Biodistribution, mean SUV” value ([1]; rest of cerebrum, 60 min after i.v. injection) was 0.97 SUV. For the same compound, the “Biodistribution, mean SUV” value ([1]; spleen, 2 min after i.v. injection) was 2.53 SUV, the “Biodistribution, mean SUV” value ([1]; spleen, 10 min after i.v. injection) was 1.36 SUV and the “Biodistribution, mean SUV” value ([1]; spleen, 60 min after i.v. injection) was 0.87 SUV. The “Biodistribution, mean SUV” value ([1]; striatum, 2 min after i.v. injection) was 1.51 SUV, the “Biodistribution, mean SUV” value ([1]; striatum, 10 min after i.v. injection) was 1.61 SUV and the “Biodistribution, mean SUV” value ([1]; striatum, 60 min after i.v. injection) was 1.30 SUV. The “Biodistribution, mean SUV” value ([1]; whole cerebrum, 2 min after i.v. injection) was 1.39 SUV, the “Biodistribution, mean SUV” value ([1]; whole cerebrum, 10 min after i.v. injection) was 1.34 SUV and the “Biodistribution, mean SUV” value ([1]; whole cerebrum, 60 min after i.v. injection) was 0.90 SUV. For the same compound, the “Eff Curve” value [2] was 107.5, the IC50 [2] was 4.37 nM and the “Brain uptake after pretreatment with compound A” value ([3]; 10 mg/kg compound A s.c. 60 min before tracer) was “peak uptake was higher after pretreatment, but generally showed a faster washout”. The “Brain uptake in PET scan, in words” value ([3]; 90 min dynamic PET scan) was “high brain uptake”, the “mGluR2/3 specificity of binding in vivo” value ([3]; PET, baseline vs compound A pretreatment) was “mGluR2/3 specific binding” and the “Eff Curve” value [4] was 94. For the same compound, the IC50 [4] was 2.82 nM.

For `C[C@H]1CN(c2ccc(C(F)(F)F)cc2)C(=O)c2c(C#Cc3cnc(N)cc3CO)cnn21` [Compound P-1], the melting point was 211.51 °C.

For `C[C@H]1CN(c2ccc(C(F)(F)F)c(CO)c2)C(=O)c2c(C#Cc3ccc(N)nc3)cnn21` [Compound P-3], the melting point was 153.23 °C.

`C[C@H]1CN(c2ccc(C(F)(F)F)cc2)C(=O)c2c(C#Cc3cnc(N)cc3CF)cnn21` [[^19F]-1] showed a melting point of 187.28 °C.
